One may read the IC50 as the concentration that inhibits the measured activity by half. The term pEC50 denotes the negative decadic logarithm of the EC50, by convention in mol/L. The EC50 is the concentration giving half of the maximal effect.

pEC50: −log10 of the molar value. Read-outs that look alike come from different tables or passages of the source.

Test [1] concerns the target T1, porcine pancreatic α-amylase (Sus scrofa, UniProt P00690).
T1 construct: purchased SRL (Sisco Research Laboratories)
T1 sequence (P00690 16-511): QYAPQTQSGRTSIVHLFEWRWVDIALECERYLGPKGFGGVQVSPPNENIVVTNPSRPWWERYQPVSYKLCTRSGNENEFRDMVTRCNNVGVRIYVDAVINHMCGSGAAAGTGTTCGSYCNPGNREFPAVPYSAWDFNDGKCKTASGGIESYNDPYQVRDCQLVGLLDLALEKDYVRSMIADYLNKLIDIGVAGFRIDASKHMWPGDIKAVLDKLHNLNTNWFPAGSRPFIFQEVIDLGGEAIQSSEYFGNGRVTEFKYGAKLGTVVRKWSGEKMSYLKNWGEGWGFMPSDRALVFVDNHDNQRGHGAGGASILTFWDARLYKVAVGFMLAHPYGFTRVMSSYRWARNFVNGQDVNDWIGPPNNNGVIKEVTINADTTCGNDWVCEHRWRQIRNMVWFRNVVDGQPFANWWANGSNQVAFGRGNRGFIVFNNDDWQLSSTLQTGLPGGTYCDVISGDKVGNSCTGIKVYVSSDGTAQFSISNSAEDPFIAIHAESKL
In words: α-amylase inhibition assay. The format is biochemical. As to the method:
The enzymatic reaction was initiated by adding the starch substrate and allowed to proceed for 15 min. The reaction was then terminated by adding the 3,5-dinitrosalicylic acid (DNSA) reagent, and the mixture was heated to boiling for 5 min. […] IC50 values were obtained from plots of percentage inhibition versus sample concentration.

For test [2], the target named is aldose reductase (Homo sapiens, UniProt P15121). Nature of the test: aldose reductase inhibition assay. Type of test: biochemical. As for the experimental part: The aldose reductase inhibition assay was performed according to the method described by Alharbi et al.. Briefly, a 1 mL reaction mixture comprised 0.87 mL of 100 mM Sodium phosphate buffer (pH 6.2), 0.05 mL of 3 mM NADPH, 0.01 mL of human aldose reductase (recombinant, 0.2 U/mL), with the enzyme’s activity being 0.2 IU/mL, and 0.02 mL of test compounds (designated as peptide 1 and peptide 2) at different concentrations. 0.05 mL of the substrate (DL-glyceraldehyde, five mM) was incubated in the reaction mixture for 3 min at 25 °C. Enzyme activity was determined by measuring the reduction in NADPH absorption at 340 nm over 10 min. […] Aldose reductase inhibitory activity was expressed as the percentage of inhibition.

The nature of test [3]: methylglyoxal scavenging (Maillard reaction model, DNPH assay). As to the method: This preliminary assay was conducted to evaluate the methylglyoxal scavenging activity of peptides derived from coconut milk. The Maillard reaction was employed to assess the scavenging potential of peptides against methylglyoxal, using parameters as outlined in previous studies by Risum et al., Zhu et al., and Brings et al., with modifications. The reaction mixture (1 mL) consisted of both peptides at different concentrations, methylglyoxal (0.01 mM), phosphate buffer, and water. It was incubated at two temperatures: room temperature (followed by immediate termination) and 37 °C (for 2 h). Following the incubation time, the reaction was terminated by adding 10 μL of glacial acetic acid. Creatine was used as a positive control. The experiments were performed in triplicate.
The scavenging potential of the peptides against methylglyoxal was determined using the DNPH assay. In brief, 25 μL of the sample was mixed with 975 μL of water and 1000 μL of DNPH reagent. The reaction mixture was shaken well and incubated at 37 °C for 10 min. Following incubation, the reaction was terminated by adding 1000 μL of 1.5 N NaOH, and the absorbance of the yellowish-orange complex was measured at 525 nm using […]: the MGO blank and the Creatine blank. Scavenging efficiency was calculated using Equations (4) and (5).(4) ACORR=Asample−Ablank (5) MGOscavenging=1−Acorr/AMGO,corr·100 where Asample is the absorbance of the reaction mixture containing methylglyoxal and the test compound (peptide or creatine), Ablank is the absorbance of the reagent blank (without methylglyoxal and without test compound), and AMGO,corr is the blank-corrected absorbance of the methylglyoxal blank (AMGO-Ablank). The creatine control was processed in the same way as the peptide samples.

The nature of test [4]: ABTS radical scavenging assay. As to the method: Concerning the ABTS assay, the ABTS^•+ radical cation was generated. Subsequently, 0.05 mL of the test samples (peptides 1 and 2) at various concentrations was mixed with 4.00 mL of ABTS^•+ solution and kept in the dark at room temperature for two h. The absorbance was determined at 734 nm using a UV–Vis Spectrophotometer (UV-1280 Shimadzu, Germany). Ascorbic acid was used as the positive control, and samples without the ABTS radical solution served as blanks. The results were expressed as the effective concentration (EC50) values.

Test [5] relates to α-glucosidase. Nature of the test: enzyme inhibition kinetics (Lineweaver-Burk), α-glucosidase. Type of test: biochemical, Saccharomyces cerevisiae. The arrangement: Vmax: unit not given here. An excerpt:
Enzyme inhibition by coconut milk peptide 2 was further characterised for α-glucosidase, α-amylase and aldose reductase by steady-state kinetic analysis. […] In this context, v denotes the initial rate of product formation, whereas [S] denotes the concentration of the chromogenic or natural substrate used in each assay. Michaelis explained how v depends on [S] for each condition, as described by the Michaelis–Menten equation (Equation (2)):(2) v=VmaxS/Km+S Lineweaver–Burk double-reciprocal plots (Equation (3)) were then constructed by plotting 1/v versus 1/[S]:(3) 1/v=Km/Vmax·1/S+1/Vmax Michaelis–Menten parameters (Km and Vmax) and apparent inhibition constants (Ki) were obtained from these Lineweaver–Burk plots.

As to H-ADVFNPR-OH [Peptide 2, ADVFNPR], the IC50 was 103 µM in test [1] (mean ± SD, read-out: α-Amylase Inhibition IC50 (converted)); 103 µM in test [1] (read-out: α-Amylase Inhibition IC50 (value in bracket) (converted)); 24.8 µM in test [2] (mean ± SD, read-out: Aldose Reductase Inhibition IC50 (converted)); 24.8 µM in test [2] (read-out: Aldose Reductase Inhibition IC50 (value in bracket) (converted)). Further, the “Methylglyoxal Scavenging EC50 at 37 °C, 2 h” value in test [3] (37 °C, 2 h) was determined as 182.17 ± 0.23 µg/mL. For the same substance, the pEC50 in test [3] (read-out: Methylglyoxal Scavenging EC50 at 37 °C, 2 h (value in bracket), 37 °C, 2 h) was 3.65. Besides, the “Methylglyoxal Scavenging EC50 at RT” value in test [3] (room temperature, immediate termination) is recorded as 208.10 ± 0.65 µg/mL. In addition, the EC50 is 254 µM in test [3] (room temperature, immediate termination, read-out: Methylglyoxal Scavenging EC50 at RT (value in bracket) (converted)) and 21.9 µM in test [4] (read-out: ABTS Radical Scavenging Assay EC50 (value in bracket) (converted)). Besides, the “ABTS Radical Scavenging Assay EC50” value in test [4] is 17.89 ± 0.20 µg/mL. The Vmax in test [5] (IC20—13.13 µg) is recorded as 14.87; in test [5] (IC40—26.26 µg), 14.68; in test [5] (IC60—39.39 µg), 14.50. Besides, the Mode of inhibition entry in test [5] (from Lineweaver–Burk plot) is reported as “Competitive”. In addition, the “Ki (apparent inhibition constant)” value in test [5] (mean ± SE) was 0.95 ± 0.09 µg. Further, in test [5] (over IC20–IC60), the “Vmax (essentially constant)” value is roughly 15 µM/min.
